Assay results as given in patent US20040192641A1, “Special preparation of anticancer drugs made by novel nanotechnology” (priority 2003, published 2004).
Marks after values point to notes of the source that are not given here.

Columns and labels:
[1] = test system: tumor S-180; test: Stained dead tumor cells in peritoneal fluid of tumor-bearing mice (CUR); assay type: in vivo; conditions: 12th day of tumor S-180 inoculation
Description: (§1) The acceptable criterion for determining the anti-tumor efficacy of the free CUR and PK-CUR-NP are the determination of the life span prolongation.
(§2) The number of dead cells in the peritoneal fluid of mice treated with PK-CUR-NP increased life span when compared to free CUR.

[2] = test system: tumor S-180; test: Survival time of tumor-bearing mice (CUR); conditions: mouse, in vivo
Description: as §1, §2

[3] = test system: L1210 leukemia cells; test: Anti-leukemia activity against lymphoid leukemia L1210 in mice (survival); assay type: in vivo; conditions: Example 54; i.p. once a day; dose 1, 10, 20 mg/kg/day, group not stated
Experimental: (§3) Animals: Adult DBA/2J male mice, 6 to 8 weeks old. All animals weighed approximately 25 g when used in experiments. Mice were assigned randomly to treatment and control groups. Each member of which received identical dosed (i.p.) of PK or 0.9% NaCl solution for all injections. Volumes were 0.01 ml/g body weight.
(§4) Tumor: L1210 or P388 leukemia cells induced in mice by inoculation with L1210 or P388 leukemia cells (1.0×10^5).
(§5) The leukemia cells were passed i.p. weekly. L1210 or P388 cells were cultured at 37° C. in RPMI-1640 medium (GIBCO) without antibiotics and supplemented with 10% fetal calf serum.
(§6) After the tumor implantation (1×10^5 leukemia cells), PK was injected intraperitoneally once a day. The treatment was started between the end of 2nd and 6th day after inoculation. Dose of PK was 25 mg/kg/day for PK groups. Control mice were treated with same value of 0-9% NaCl. Anti-leukemia activity was expressed as T/C %. T is median survival days of treated group and C is that of control group. A T/C value was greater that 100% means the treated mice is surviving longer than the control mice. […] The statistical significance of data was determined by student's test. […]
(§7) After the tumor implantation (1×10^5 leukemia cells), PK-HHT-SSL was injected intraperitoneally once a day. […] Anti-leukemia activity was expressed as T/C %. […] The statistical significance of data was determined by student's test.

[4] = test system: P388 leukemia cells; test: Anti-leukemia activity against P388 lymphocytic leukemia in mice (survival); assay type: in vivo; conditions: Example 54; i.p. once a day; dose 1, 10, 20 mg/kg/day, group not stated
Experimental: as §3, §4, §5, §6, §7

[5] = test system: sarcoma-180 solid tumors; test: Effect on sarcoma-180 solid tumors in mice (survival); assay type: in vivo; conditions: Example 54; percentage survival, 30 days observation after tumor cell inoculation
[6] = test system: malignant melanocarcinoma B16; test: Inhibition of tumor cell proliferation, B16; assay type: cell-based, human; conditions: Mus musculus; 1 μg/ml, 72 hours
Experimental: Human tumor cell lines: Hela leukemia HL-60, malignant melanocarcinoma B16, oral epidermoid carcinoma (KB), lung carcinoma (A549), breast carcinoma MCF-7, adenocarcinoma of stomach.
Animal tumor cell lines: Walker carcinoma, LLC-WRC-256, malignant melanoma (RMMI 1846), 3T3, and S-180 sarcoma (CCRF-180). All lines were routinely cultured in the RPMI1640 medium supplemented 20% fetal calf serum. The experiment was carried out in 96 microplate, each well had 5×10^5 cells and given desired concentration of 1 μg/ml (1×10^−6 g/ml) drug. Then the plate was incubated at 37° C. in an atmosphere of humidified air enriched with 5 percent carbon dioxide for 72 hours.
Inhibition percent rate of tumor cell proliferation was obtained according to the bellow formula. [formula]

[7] = Pharmacokinetic study: tissue AUC; assay type: in vivo, mice; conditions: 0.5 mg HHT/kg via the tail
Experimental: Present example described Pharmacokinetic studied of NP. Free HHT and PK-HHT-NP were given to mice via the tail at dose of 0.5 mg HHT/kg. Other methods are as same as method of Example 22.

[8] = test system: HL-60 cells; test: Differentiation of human leukemic cells (HL-60), Example 57; assay type: cell-based
Experimental: Cell Lines. HL-60 cells were established from a patient with acute myeloid leukemia. The cells were cultured in culture flasks with RPMI plus 10% FCS.
Studies of Induction of Differentiation. Differentiation of HL-60 cells was assessed by their abilities to produced superoxide as measured by reduction of NBT, by NSE staining and by morphology as detected on cytospin preparations stained with Diff-Quick stain Set, and by analysis of membrane-bound differentiation markers with two-color immunofluorescence. Briefly, cells were preincubated at 4° C. for 60 min in 10% human AB serum and then with FITC-conjugated mouse IgGI isotype control. Analysis of fluorescence was performed on a flow cytometer.
Cell Cycle Analysis. The cell cycle was analyzed by flow cytometry after 60 h of incubation of HL-60 cells either with or without HHT (10^−8 M) as described. Briefly, the cells were fixed in cold methanol and incubated for 30 min at 4° C. in the dark with a solution of 50 μg/ml propidium iodide, 1 mg/ml Rnase, and 0.1% NP40. Analysis was performed immediately after staining using the CELLFIT program whereby the S-phase was calculated with Rfit model.
Clonogenic Assay in soft Agar. HL-60 cells were culture in a two-layer soft agar system for 10 days without adding any growth factors as described previously, and colonies were counted using an inverted microscope. […]

SMILES | Number of stained dead tumor cells (1 × 10^6 cells mL^−1) [1] | Increase in life span T/C (%) [2] [%] | MST [2] [days] | Survival time [3] [days] | Survival time [4] [days] | Mean survival (%) [5] [%] | inhibition at 1 µg/mL [6] [%] | Tissue AUC, Blood [7] [µg·h/g] | Tissue AUC, Cancer [7] [µg·h/g] | Tissue AUC, Heart [7] [µg·h/g] | Tissue AUC, Kidney [7] [µg·h/g] | Tissue AUC, Liver [7] [µg·h/g] | Tissue AUC, Lung [7] [µg·h/g] | Tissue AUC, Spleen [7] [µg·h/g] | NBT (%) [8]
C=C1C[C@@]2(O)O[C@@]3(C[C@H]2C(C)C)[C@@H](C)CC[C@@H]13 [CUR, Curcumol] | 5.36 ± 0.95 1 × 10^6 cells mL^−1 | 134.78 | 31 ± 1.9 |  |  |  |  |  |  |  |  |  |  |  | 
COC(=O)C[C@](O)(CCCC(C)(C)O)C(=O)O[C@@H]1C(OC)=C[C@]23CCCN2CCc2cc4c(cc2[C@H]13)OCO4 [HHT, Homoharringtonine] |  |  |  | 15.6 ± 2.8 | 19.8 ± 4.2 | 58.6 | 73.8 ± 8.1 | 3.0 | 12.0 | 89.2 | 243.2 | 168.8 | 138.9 | 192.8 | 65* %
